Measured values as given in patent EP0403957A2, “Optical active 1,4-dihydropyridine derivates” (FUJIREBIO INC., priority 1989, dated 1990).
Like-named read-outs stand apart in the source and are kept apart here.

Tests used:
[1] = system: spontaneously hypertensive rats (aparalytic SHR; male); assay: Test for hypotensive activity; type: in vivo; conditions: for HR / T 1/2 / Peak: 300 µg/kg into the abdominal aorta of SHR; for MaxΔMBP: 300 µg/kg into the abdominal aorta of SHR through a canula, blood pressure by pressure transducer; for T 1/2: half time of the hypotensive effect; for Peak: time of peak of the hypotensive effect
Method: The test was carried out by employing spontaneously hypertensive rats (aparalytic SHR; male) according to Nakao et al method.
300 µg/kg of the compound to be tested was administrated into the abdominal aorta of SHR through a canula (previously inserted). The blood pressures in the whole body of the rats were measured with a pressure transducer (MPU-0.5, made by Nihon Koden K.K.).

[2] = system: thoracic aortas of rabbits; assay: Test for activity of inhibiting KCl-induced contraction; type: cell-based, rabbits (Japanese white rabbit; male); conditions: 3x10⁻⁶ M compound; 30 mM KCl; helical strips in Krebs-Henseleit solution at 37°C; determined in 60 minutes
Method: Herical strips of thoracic aortas of rabbits (Japanese white rabbit; male) were mounted vertically in organ baths of Krebs-Henselit solution at 37°C for 90 minutes, and then 30 mM of KCl was added to the baths. After 30 minutes, the compound to be tested was added to the baths, and the variations in the tension were recorded by an isometric kymograph, so that the inhibitory activity of the compound was determined in 60 minutes.

platelet rich plasma = assay: Test for platelet aggregation-inhibiting activity in rabbit platelet rich plasma; type: cell-based, rabbit (Japanese white; male); conditions: Oryctolagus cuniculus, 0.5 h, 30 minutes incubation in PRP
Method: The mixture was centrifuged at 1100 rpm at 20°C for 15 minutes. The upper layer is a platelet rich plasma (RRP), and the lower layer was centrifuged at 2500 rpm at 20°C for 10 minutes, so that a platelet poor plasma (PPP) was obtained.
10 µℓ of a solution of the compound to be tested with a concentration of 10⁻⁴ moℓ/ℓ was added to 200 µℓ of PRP, and the mixture was subjected to incubation for 30 minutes. To the mixture was added 10 µℓ of a platelet activating factor (PAF)(10 µg/mℓ), or arachidonic acid (AA)(1 mM at final concentration). The extent of the aggregation was measured by Agricometer (NKK, PAT-4A).

Compound	HR [1]	MaxΔMBP [1]	T 1/2 [1]	Peak [1]	Inhibitory Effect on KCℓ-induced contraction(%) [2]	IC50 (platelet rich plasma; aggregation induced by platelet activating factor (PAF) 10 µg/ml, read-out: IC₅₀ (M) PAF(10 µg/ml))	IC50 (platelet rich plasma; Platelet, aggregation induced by arachidonic acid (AA) 1 mM at final concentration, read-out: IC₅₀ (M) AA(1 mM))
COC(=O)C1=C(C)NC(C)=C(C(=O)OC/C=C/c2ccc(Cn3ccnc3)cc2)C1c1cccc([N+](=O)[O-])c1 (single isomer, unassigned; (+)) [Example 36, (+)-3-[4-(1-imidazolylmethyl)phenyl]-2-propen-1-yl methyl-1,4-dihydro-2,6-dimethyl-4-(3-nitrophenyl)pyridine-3,5-dicarboxylate]	49.0 beats/min	51.4 mmHg	3.4 min	0.9 min	51.1 ± 11.6%	0.00011 M	0.00014 M
(-)-3-[4-(-(1-imidazolylmethyl)phenyl]-2-propen-1-yl methyl-1, 4-dihydro-2,6-dimethyl-4-(3-nitrophenyl)pyridine-3,5-dicarboxylate [Example 37]	3.7 beats/min	10.8 mmHg	0.4 min	0.6 min	16.8 ± 9.8%		
